Test results from PMC11286589, “Population pharmacokinetics and exposure–response analyses of SAF-189s in Chinese patients with ALK+/ROS1+ non-small cell lung cancer” (Frontiers in Pharmacology, 2024).
Like-named read-outs stand apart in the source and are kept apart here.

How the values were obtained:
[1] = test system: ALK+/ROS1+ advanced NSCLC; test: Exposure–efficacy analysis (logistic regression, Cox regression, SFBE tumor model); format: in vivo, human; conditions: for Incidence CR: 61 patients
Procedure: (§1) All studies were conducted in accordance with the Good Clinical Practice guidelines and Declaration of Helsinki. The protocols were approved by the independent ethics committee of each investigation site, and all subjects provided informed consent. The tumor responses were assessed by the IRC based on the Response Evaluation Criteria in Solid Tumors (RECIST) 1.1 conditions. The exposure–efficacy analyses of SAF-189s were conducted based on data from patients in the SAF001 study to explore the relationships between systemic exposure and efficacy endpoints, including the ORR, PFS, and duration of response (DOR). The exposure–safety analyses of SAF-189s were conducted based on data from patients in the SAF001 study to explore the relationships between the systemic exposure and safety endpoints, including the adverse events (AEs) of interest. In these studies, the SAF-189s plasma concentrations were analyzed using validated liquid chromatography tandem mass spectrometry within the assay range of 0.5–150 ng mL^–1.
The exposure–efficacy analysis entails evaluation of the relationships between the individual SAF-189s exposures and efficacy endpoints. These efficacy endpoints include the ORR, PFS, DOR, and tumor size. In Eq. 1, the Stein-Fojo biexponential (SFBE) model was used to characterize the tumor shrinkage (mean shrinkage rate, KS) and tumor growth inhibition (mean regrowth rate, KG) parameters to compute the sum of longest lesion diameters (SOD). SODij= It≤0×SOD0i×expKGi×tij+It>0×SOD0i×exp−KSi×tij+expKGi×tij−1+eij. (1)
The individual post hoc PK parameters from the final PopPK model and the most prevalent dosage were used to calculate Cmin,ss and AUCss at steady state. The exposure was assessed for its relationship with the ORR using a logistic regression model and with PFS/DOR using the Cox regression model. The individual model parameter estimates (KGi, KSi) were plotted versus Cmin, ss_i to explore the relationships between exposure and tumor growth.

[2] = Exposure–safety analysis (logistic regression); format: in vivo, human; conditions: per increase in exposure (AUCss) of 1 ng∙h mL^–1 d^–1, all patients
Procedure: as §1
The exposure–safety relationships were characterized using the exposure metrics to the first occurrence of an event. The AEs of interest selected for analysis included hyperglycemia and proteinuria. The individual post hoc PK parameters from the final PopPK model and the first dosage were used to calculate the Cmin,ss, Cmax,ss, and AUCss at steady state, which were used as the exposure metrics. The exposure–safety analysis was performed using a logistic regression modeling approach.

[3] = design: method as in Qin et al., 2023; conditions: ref Qin et al., 2023, cited from earlier work
[4] = test system: ALK+/ROS1+ advanced NSCLC; conditions: ref Yang et al., cited from earlier work; for ORR: phase II, 2022a
efflux transporter P-gp = conditions: in vitro studies, no reference given; cited from earlier work
CYP3A = conditions: no reference given; cited from earlier work
[5] = no reference given, cited from earlier work
[6] = previous NCA results, no reference given, cited from earlier work
[7] = test system: tumor xenograft models derived from genetically engineered cells overexpressing ALK rearrangements, ROS1+ rearrangements, or crizotinib-resistant ALK and ROS1 …; design: method as in Xia et al., 2021; conditions: tumor xenograft and CNS tumor models; ref Xia et al., 2021; cited from earlier work
[8] = Cmin,ss quartile 1, 61 patients
[9] = Cmin,ss quartile 2, 61 patients
[10] = Cmin,ss quartile 3, 61 patients
[11] = Cmin,ss quartile 4, 61 patients
[12] = parameter Cmin,ss, 192 patients, p 0.251
[13] = parameter Cmin,ss, 244 patients, p 0.059
[14] = high-fat meal vs fasted, single dose 160 mg
[15] = single dose 160 mg, unaffected by food
[16] = ROS1-naive patients, phase IIa, 2022b

In the case of `Cc1cc(Nc2ncc(Cl)c(Nc3ccccc3S(=O)(=O)C(C)C)n2)c2c(c1C1CCN(C)CC1)C[C@@H](C)O2` [SAF-189s], the “Incidence CR” value ([1]; Cmin,ss quartile 1 (18–60.7 ng mL^–1)) is reported as 1 (1.64) N (%), the “Incidence NE” value [1, 8] is reported as 0 (0.00) N (%) and the “Incidence PD” value [1, 8] is reported as 3 (4.92) N (%). The “Incidence PR” value [1, 8] was 53 (86.89) N (%), the “Incidence SD” value [1, 8] was 4 (6.56) N (%) and the “Incidence CR” value ([1]; Cmin,ss quartile 2 (60.7–79 ng mL^–1)) was 0 (0.00) N (%). The “Incidence NE” value [1, 9] was 0 (0.00) N (%), the “Incidence PD” value [1, 9] was 4 (6.56) N (%) and the “Incidence PR” value [1, 9] was 44 (72.13) N (%). For the same compound, the “Incidence SD” value [1, 9] was 13 (21.31) N (%), the “Incidence CR” value ([1]; Cmin,ss quartile 3 (79–108 ng mL^–1)) was 0 (0.00) N (%) and the “Incidence NE” value [1, 10] was 0 (0.00) N (%). The “Incidence PD” value [1, 10] was 2 (3.28) N (%), the “Incidence PR” value [1, 10] was 47 (77.05) N (%) and the “Incidence SD” value [1, 10] was 12 (19.67) N (%). The “Incidence CR” value ([1]; Cmin,ss quartile 4 (108–182 ng mL^–1)) was 1 (1.64) N (%), the “Incidence NE” value [1, 11] was 0 (0.00) N (%) and the “Incidence PD” value [1, 11] was 3 (4.92) N (%). The “Incidence PR” value [1, 11] was 46 (75.41) N (%), the “Incidence SD” value [1, 11] was 11 (18.03) N (%) and the “odds ratio (OR), probability of achieving ORR vs Cmin,ss” value ([1]; logistic regression, all patients (n = 244), p = 0.084) was 0.556. For the same compound, the “Cox regression estimate, DOR” value [1, 12] was 0.0059, the “Hazard ratio (95% CI), DOR” value [1, 12] was 1.006 (0.996–1.016) and the “Cox regression estimate, PFS” value [1, 13] was 0.0071. The “Hazard ratio (95% CI), PFS” value [1, 13] was 1.007 (1.000–1.015), the “tumor size after initiation of treatment” value ([1]; tumor growth inhibition (SFBE) model, most patients) was “decreased rapidly” and the “OR for any-grade hyperglycemia” value ([2]; p < 0.001) was 3.521. For the same compound, the “OR for grade ≥2 hyperglycemia” value ([2]; p < 0.001) was 7.662, the OR for proteinuria ([2]; p = 0.021) was 2.031 and the “intersubject variability AUC0-t” value ([3]; fasted) was 33.8%. The “intersubject variability AUC0-∞” value ([3]; fasted) was 34.6%, the “intersubject variability Cmax” value ([3]; fasted) was 23.0% and the “intersubject variability AUC0-t” value ([3]; fed) was 31.3%. For the same compound, the “intersubject variability AUC0-∞” value ([3]; fed) was 32.8%, the “intersubject variability Cmax” value ([3]; fed) was 19.7% and the “geometric mean ratio AUC0-t” value [3, 14] was 105.1%. For the same compound, the “geometric mean ratio Cmax” value [3, 14] was 109.1%, the “Tmax (median)” value [3, 15] was 6 h and the “t½ (mean)” value [3, 15] was “around 35 h”. For the same compound, the “IRC-assessed ORR” value [4, 16] was 94.1%, the “median progression-free survival (PFS)” value [4, 16] was 16.5 months and the ORR ([4]; ALK+ patients with brain metastases) was 74.6%. For the same compound, the ORR ([4]; ALK-inhibitor-naive patients) was 92.3%, the ORR ([4]; crizotinib-pretreated group) was 65.4% and the ORR ([4]; overall ALK+ patients) was 78.7%. The “IRC-assessed ORR” value ([4]; phase IIb, ROS1-naive, brain metastases subgroup, 2022b) was 85.7%, the “IRC-assessed ORR” value ([4]; phase IIb, overall ROS1-naive patients, 2022b) was 80.4% and the P-gp inhibitor (efflux transporter P-gp) was “inhibitor”. The P-gp substrate (efflux transporter P-gp) was “substrate”, the CYP3A substrate (CYP3A) was “substrate of CYP3A” and the permeability ([5]; BCS classification) was “low permeability”. The solubility ([5]; BCS classification) was “low solubility”, the BCS class [5] was “BCS IV” and the “apparent clearance (CL/F)” value ([6]; after multiple doses at 20 mg once daily) was 132 L h^–1. For the same compound, the “apparent clearance (CL/F)” value ([6]; after multiple doses at 210 mg once daily) was 58.3 L h^–1 and the antitumor effects [7] was “Strong antitumor effects”.
